Measured values reported in patent publication US20250302840A1, “COMBINATION THERAPIES” (Janssen Pharmaceutica NV, priority 2021, published 2025).
Where a name gives a salt, the structure may show the parent alone. Marks after values point to notes of the source that are not given here.

Columns and labels:
MOLM-13 tumors = assay: Efficacy of combinations in MOLM-13 (KMT2a-r) IV model in NSG mice; format: in vivo; settings: azacitidine 2 mg/kg ip QD × 7; venetoclax 100 mg/kg po QD × 28; Compound A1 10 mg/kg po QD × 28
Experimental: Each mouse received an injection of 1×10^5 MOLM-13 cells, and all other parameters were conducted as described for experiment (10).

iCell® Cardiomyocytes2 = assay: Ca2+-fluorescence assay in human pluripotent stem cell-derived cardiomyocytes (CTCM human); format: cell-based; design: key to Hazard scoring, Color @ 0.1 μM / Hazard scoring, Color @ 0.2 μM / Hazard scoring, Color @ 0.5 μM / Hazard scoring, Color @ 1 μM / Hazard scoring, Color @ 2.5 μM / Hazard scoring, Color @ 5 μM / Hazard scoring, Color @ 0.3 μM / Hazard scoring, Color @ 3 μM / Hazard scoring, Color @ 10 μM / Hazard scoring, Color @ 30 μM: Green: No concern; Yellow: Low concern; Red: High concern; Black: Very high concern due to arrhythmic events
Experimental: Compounds were tested in the 96-well plates.
Compounds were tested at 0.1 μM, 0.2 μM, 0.5 μM, 1 μM, 2.5 μM and 5 μM (n=4 per dose) on Cor.4U®-Cardiomyocytes or on iCell® Cardiomyocytes2.
Alternatively, compounds were tested at 0.1 μM, 0.3 μM; 1 μM, 3 μM, 10 μM and 30 μM (n=4 per dose) mostly on iCell® Cardiomyocytes2.
Vehicle control: Dimethylsulfoxide (DMSO). The solutions of the compound in DMSO or its solvent (final concentration of 0.1% DMSO; n=8).
Tested compounds were dissolved in DMSO at 1000-fold the intended concentrations.
A compound “mother-plate” was made, containing the test compounds and positive and negative controls at 1000-fold the final concentrations. At the experiment day, these stock solutions were diluted with Tyrode (Sigma), supplemented with 10 mM HEPES (Gibco), to 2-fold the intended concentration (in round bottom compound plates). Final DMSO concentration in test solutions and vehicle control was 0.1%.
Second line hSC derived cardiomyocyte called iCell® Cardiomyocytes2 were purchased from FUJIFILM Cellular Dynamics (USA). The experiments with test drugs are carried out 5 to 7 days after plating the cells onto the plate to have a living, beating monolayer of hiPSC-derived cardiomyocytes. The beating monolayer in 96-well-plates are normally taken from 2 Vials of frozen iCell® Cardiomyocytes2 (˜5 million cells/vial), which will be plated onto […] 96-well plates (z50K/well).
At least one hour before the start of the experiments the normal cell medium was replaced with Tyrode solution with Calcium dye (see below).
Cal 520 dye (AAT Bioquest) was dissolved in 11 ml of Tyrode supplemented with 10 mM HEPES and warmed up to 37 C before adding to the cells.
35 μl cell culture medium was removed from each well and replaced with 35 μl of pre-warmed Cal 520 dye solution and cell plate was incubated for 45 min at 37° C./5% CO2. Cells were incubated for 5 min at 37° C.
Spontaneous electrical activity is recorded, using Cal520™ (AAT Bioquest) calcium fluorescence-dye signalling. This dye integrates the total intracellular calcium activity over the whole well. A bottle of Cal520 dye ([…], MW: 1103/mol) is dissolved with 50 μl DMSO as a stock solution of 0.9 mM. 50 μL of the stock solution of the dye was added to 10 ml Tryodes solution to have dye concentration of 4.5 μM. Subsequently, 35 μl of this dye solution was added into each well, to have a final dye concentration of 1.58 μM. The current dye protocol on this CTCM human assay was established recently (Ivan Kopljar et al, Journal of Pharmacological and toxicological methods 2018. 91: 80-86; Lu et al., Tox Sci 2019. 170 (2): 345-356).
Fluorescent signals (Ca^2+ transient morphology) were measured using the Functional Drug Screen System (FDSS/pCell; Hamamatsu, Japan) and the recordings were subsequently analyzed off-line, using appropriate software e.g., Notocord.
The cell plate was loaded into the FDSS/pCell for a test run: Ca^2+ transients were measured for 4 minutes to check for synchronous beating of the cardiomyocytes in each well. All 96 wells were measured simultaneously (sampling interval: 0.06 s, short exposure time: 10 ms; excitation wavelength 480 nm; emission wavelength 540 nm; FDSS/pCell warmed to 37° C.).
During the compound addition step, 100 μl of the respective double-concentrated test solutions was pipetted into each well simultaneously.
Data were analyzed off-line using appropriate software e.g., Notocord-Hem (version 4.3).
The following parameters of the Ca^2+ transient morphology were measured: • beat rate (BR) • amplitude of the Ca^2+ transient (Amp), • CTD90: Ca^2+ transient duration at 90% (time to 90% of the initial base value).
The presence of various ‘arrhythmia-like’ activities were also noted during the experimental periods. […]

[1] = Mouse PK (in vivo T1/2 and oral bioavailability); design: species or system CD-1 mice; settings: for In vivo T1/2 (IV): IV 0.5 or 1.0 mg/kg
Experimental: In vivo pharmacokinetics (PK) were assessed in fasted male CD-1 mice (age 6-8 weeks) following a single intravenous (IV, 0.5 or 1.0 mg/kg administered at 2.5 ml/kg) or oral (PO, 5 mg/kg administered at 10 ml solution/kg) dose of test article formulated in a 20% (w:vol) HP-β-CD solution or in Pyrogen free water.
Plasma and/or whole blood samples were collected from the dorsal metatarsal vein at desired timepoints via serial capillary microsampling (approx. 0.03 mL) using EDTA as an anticoagulant. Concentrations of compound in the plasma and blood samples were analyzed using a qualified LC-MS/MS method. In silico analysis of main pharmacokinetic parameters was performed using WinNonlin (Phoenix™, version 6.1) or similar software.)

OCI-AML3 tumors = assay: Efficacy of combinations in OCI-AML3 (NPM1c) IV model in NSG mice; format: in vivo; settings: azacitidine 2 mg/kg ip QD × 7; venetoclax 100 mg/kg po QD × 28; Compound A1 30 mg/kg po QD × 28
Experimental: Median survival was determined utilizing Kaplan-Meier survival analysis.

[2] = efficacious dose in mouse xenograft models of 30 mg/kg, (mouse, human)

| Compound | % ILS (MOLM-13 tumors) | Hazard scoring, Color @ 0.1 μM (iCell® Cardiomyocytes2; 30 min incubation, Table 12) | Hazard scoring, Color @ 0.3 μM (iCell® Cardiomyocytes2; 30 min incubation, Table 12) | Hazard scoring, Color @ 1 μM (iCell® Cardiomyocytes2; 30 min incubation, Table 12) | Hazard scoring, Color @ 3 μM (iCell® Cardiomyocytes2; 30 min incubation, Table 12) | Hazard scoring, Color @ 10 μM (iCell® Cardiomyocytes2; 30 min incubation, Table 12) | Hazard scoring, Color @ 30 μM (iCell® Cardiomyocytes2; 30 min incubation, Table 12) | also measured |
| --- | --- | --- | --- | --- | --- | --- | --- | --- |
| CCN(C(=O)c1cc(F)ccc1Oc1nncnc1N1CCC2(C1)CN([C@H](CCCN(C)CCOC)C(C)C)C2)C(C)C [Compound A1] | 35* % | Green | Green | Green | Green | Green | yellow | Margin CTCM human 10 μM vs free Cmax (iCell® Cardiomyocytes2; [2]): > 16; Margin CTCM human 30 μM vs free Cmax (iCell® Cardiomyocytes2; [2]): > 45 |
| CCN(C(=O)c1cc(F)ccc1Oc1nncnc1N1CCC2(C1)CN([C@H](CCCNCCOC)C(C)C)C2)C(C)C [Compound 11, (R)—N-ethyl-5-fluoro-N-isopropyl-2-((5-(2-(6-((2-methoxyethyl)amino)-2-methylhexan-3-yl)-2,6-diazaspiro[3.4]octan-6-yl)-1,2,4-triazin-6-yl)oxy)benzamide] |  | Green | Green | Green | Green | Green | Green |  |
| CCN(C(=O)c1cc(F)ccc1Oc1nncnc1N1CCC2(C1)CN([C@H](CCCN(C)CCOC)C(C)C)C2)C(C)C [Compound A, (R)—N-ethyl-5-fluoro-N-isopropyl-2-((5-(2-(6-((2-methoxyethyl) (methyl)amino)-2-methylhexan-3-yl)-2,6-diazaspiro[3.4]octan-6-yl)-1,2,4-triazin-6-yl)oxy) benzamide] |  |  |  |  |  |  |  | In vivo T1/2 (IV) ([1]; formulating agent HP-β-CD): 6.7 h; Bioavailability (PO) ([1]; PO 5 mg/kg, formulating agent HP-β-CD): 17% |
| CCN(C(=O)c1cc(F)ccc1Oc1nncnc1N1CCC2(C1)CN([C@H](CCCN(C)CCOC)C(C)C)C2)C(C)C [Compound A3, (R)—N-ethyl-5-fluoro-N-isopropyl-2-((5-(2-(6-((2-methoxyethyl) (methyl)amino)-2-methylhexan-3-yl)-2,6-diazaspiro[3.4]octan-6-yl)-1,2,4-triazin-6-yl)oxy) benzamide oxalate] |  |  |  |  |  |  |  | In vivo T1/2 (IV) ([1]; formulating agent Pyrogen free water): 9.0 h; Hazard scoring, Color @ 0.1 μM (iCell® Cardiomyocytes2; 30 min incubation, Table 11): Green; Hazard scoring, Color @ 0.2 μM (iCell® Cardiomyocytes2; 0.2 μM, 30 min incubation, Table 11): Green; Hazard scoring, Color @ 0.5 μM (iCell® Cardiomyocytes2; 0.5 μM, 30 min incubation, Table 11): Green; Hazard scoring, Color @ 1 μM (iCell® Cardiomyocytes2; 30 min incubation, Table 11): Green; Hazard scoring, Color @ 2.5 μM (iCell® Cardiomyocytes2; 2.5 μM, 30 min incubation, Table 11): Green; Hazard scoring, Color @ 5 μM (iCell® Cardiomyocytes2; 5 μM, 30 min incubation, Table 11): Green |
| CC1(C)CCC(CN2CCN(c3ccc(C(=O)NS(=O)(=O)c4ccc(NCC5CCOCC5)c([N+](=O)[O-])c4)c(Oc4cnc5[nH]ccc5c4)c3)CC2)=C(c2ccc(Cl)cc2)C1 [Venetoclax, reference compound] | 6% |  |  |  |  |  |  | % ILS (OCI-AML3 tumors): 0 (ns) % |
